According to PubChem BioAssay AID2060616 (Molecular Pharmacology Branch, DTP, NCI, 2025):

Tested on: 377384-186-R-J1-PDC complex spheroid viability
Experiment: Anticancer human tumor 377384-186-R-J1-PDC patient-derived pancreatic carcinoma cell line growth inhibition [CLK]
Conditions: for IC50: curve of first compound; for viability, T/C: stronger effect = lower value; active = viability on the fitted dose curve at most 10% of control; inactive = the rest
From the text: A high-throughput screen of multi-cell type tumor spheroids was designed to identify active combinations of […] and targeted small molecules. Complex spheroids include a stromal component modeled by human endothelial cells (HUVEC) and fibroblasts modeled by human mesenchymal stem cells (MSCs). The concentration ranges selected for each drug and investigational agent were based upon clinically achievable concentrations if the clinical Cmax of the agent was known.
Compounds. The drugs and investigational agents: cirtuvivint (SM08502; NSC835563), CC-671 (NSC850746), vemurafenib (NSC761431), tapotoclax (NSC804041), sotorasib (NSC818433), adagrasib (NSC831453), MRTX-1133 (NSC836407), BAY2416964 (NSC825713), copanlisib (NSC816437), inavolisib (NSC800729), abemaciclib (NSC768073), osimertinib (NSC779217), entinostat (NSC756642), eltanexor (KPT-8602, NSC794443), venetoclax (NSC766270), ceralasertib (NSC777638), bortezomib (NSC756655), olaparib (NSC753686), talazoparib (NSC767125), alisertib (NSC759677), peposertib (NSC802822), gemcitabine (NSC613327), 5-fluorouracil (NSC19893), SN-38 (NSC673596), oxaliplatin (NSC266046), paclitaxel (NSC125973), and doxorubicin (NSC123127), were obtained from the National Cancer Institute (NCI) Developmental Therapeutics Program Chemical Repository. The FDA-approved anticancer drug set is available from the Developmental Therapeutics Program at https://dtp.cancer.gov/organization/dscb/obtaining/available plates.htm. […] The stock solutions were prepared in dimethyl sulfoxide (DMSO, Sigma-Aldrich, St. Louis, MO, cat. D2650), except for the platinum complexes which were prepared in saline (Quality Biological, Gaithersburg, MD, cat. 114-055-101), at 800-fold the tested concentration and stored at -70 degrees C prior to their use. All drugs and investigational agents were tested over a range starting from a high concentration at or near the clinical Cmax and decreasing in half-log increments. If the clinical Cmax for an agent had not been determined, the highest concentration tested was 10 microM.
Cell Culture. All cells were maintained in an incubator at 37 degrees C and 5% CO2 with 95% humidity. The PDC lines were cultured according to standard operating procedures established by the NCI PDMR. Briefly, all PDCs were thawed and cultured in Matrigel-coated flasks prepared with a working solution of 1X Ham's F-12 nutrient mix, without supplementation (Invitrogen, Waltham, MA, cat. 11765054), 100 U/mL penicillin-streptomycin (Invitrogen, cat. 15140122), and 2.5% Matrigel (Corning Inc., Corning, NY, cat. 354248) for the first three passages. The 947758-054-R-J2-PDC line was cultured in 6B/Colon 1A media, which includes advanced DMEM/F-12 (Thermo Fisher Scientific, cat. 12634028), 10 mM HEPES (Thermo Fisher Scientific, cat. 15630080), 1X GlutaMAX supplement (Thermo Fisher Scientific, cat. 35050061), 0.1 mg/mL primocin (InvivoGen, cat. ant-pm-2), 10% defined fetal bovine serum, heat inactivated (HyClone Laboratories Inc., cat. SH30070.03HI), 1.25 mM N-Acetyl-L-cysteine (Sigma-Aldrich, cat. A9165), 10 mM nicotinamide (Sigma-Aldrich, cat. N0636), 1X B-27 supplement (Thermo Fisher Scientific, cat. 17504044), 1X N-2 supplement (Thermo Fisher Scientific, cat. 17502048), and 10 microM Y-27632 dihydrochloride (Tocris Bioscience, cat. 1254). The 876862-298-R-J1-PDC was cultured in 6E media, which includes all 6B/Colon 1A media components plus 50% L-WRN conditioned media (ATCC, cat. CRL-3276), 50 ng/mL recombinant human EGF recombinant protein (hEGF; Thermo Fisher Scientific, cat. PHG0311), 10 ng/mL recombinant human fibroblast growth factor 10 (hGFG-10; PeproTech, cat. 100-26), 1 ng/mL recombinant human fibroblast growth factor 2 (hFGF-2; PeproTech, cat. 100-18B), and 1 µM prostaglandin E2 (PGE2; Tocris, cat. 2296). The 227483-062-R1-J1-PDC line was cultured in Panc media, containing all 6E components except hFGF-2, with the addition of 500 nM SB-431542 (Selleckchem, cat. S1067) and 10 nM gastrin (Tocris, cat. 3006). […]

[1] = second compound 0.0316 µM, first compound 0.0316 µM
[2] = second compound 0.0316 µM, first compound 0.1 µM
[3] = second compound 0.0316 µM, first compound 0.316 µM
[4] = second compound 0.0316 µM, first compound 1 µM
[5] = second compound 0.0316 µM, first compound 3.16 µM
[6] = second compound 0.0316 µM, first compound 10 µM
[7] = second compound 0.1 µM, first compound 0.0316 µM
[8] = second compound 0.1 µM, first compound 0.1 µM
[9] = second compound 0.1 µM, first compound 0.316 µM
[10] = second compound 0.1 µM, first compound 1 µM
[11] = second compound 0.1 µM, first compound 3.16 µM
[12] = second compound 0.1 µM, first compound 10 µM
[13] = second compound 0.316 µM, first compound 0.0316 µM
[14] = second compound 0.316 µM, first compound 0.1 µM
[15] = second compound 0.316 µM, first compound 0.316 µM
[16] = second compound 0.316 µM, first compound 1 µM
[17] = second compound 0.316 µM, first compound 3.16 µM
[18] = second compound 0.316 µM, first compound 10 µM
[19] = second compound 1 µM, first compound 0.0316 µM
[20] = second compound 1 µM, first compound 0.1 µM
[21] = second compound 1 µM, first compound 0.316 µM
[22] = second compound 1 µM, first compound 1 µM
[23] = second compound 1 µM, first compound 3.16 µM
[24] = second compound 1 µM, first compound 10 µM
[25] = second compound 3.16 µM, first compound 0.0316 µM
[26] = second compound 3.16 µM, first compound 0.1 µM
[27] = second compound 3.16 µM, first compound 0.316 µM
[28] = second compound 3.16 µM, first compound 1 µM
[29] = second compound 3.16 µM, first compound 3.16 µM
[30] = second compound 3.16 µM, first compound 10 µM
[31] = second compound 10 µM, first compound 0.0316 µM
[32] = second compound 10 µM, first compound 0.1 µM
[33] = second compound 10 µM, first compound 0.316 µM
[34] = second compound 10 µM, first compound 1 µM
[35] = second compound 10 µM, first compound 3.16 µM
[36] = second compound 10 µM, first compound 10 µM
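Also: spheroids exposed to agents for 7 days before reading.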
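For viability, T/C in this document: luminescence signal used as a stand-in for viable cells.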

CCCS(=O)(=O)Nc1ccc(F)c(C(=O)c2c[nH]c3ncc(-c4ccc(Cl)cc4)cc23)c1F + CN1CCN(c2cc(C(=O)Nc3cc4cc(-c5cnn(C)c5)ccc4cn3)ccn2)CC1
< 31.6 nM: IC50 (second compound 0.316 µM) | IC50 (second compound 1 µM) | IC50 (second compound 3.16 µM) | IC50 (second compound 10 µM)
active: viability, T/C [19] 1.07% | viability, T/C [20] 3.44% | viability, T/C [21] 1.53% | viability, T/C [22] 1.74% | viability, T/C [23] 1.66% | viability, T/C [24] 1.39% | viability, T/C [25] 0.5% | viability, T/C [26] 0.57% | viability, T/C [27] 1.26% | viability, T/C [28] 0.82% | viability, T/C [29] 0.51% | viability, T/C [30] 0.48% | viability, T/C [31] 0.54% | viability, T/C [32] 0.62% | viability, T/C [33] 0.58% | viability, T/C [34] 0.68% | viability, T/C [35] 0.66% | viability, T/C [36] 0.26%
8850 nM: IC50 (second compound 0.1 µM)
inactive: viability, T/C [1] 122% | viability, T/C [2] 122% | viability, T/C [3] 141% | viability, T/C [4] 140% | viability, T/C [5] 117% | viability, T/C [6] 64.8% | viability, T/C [7] 117% | viability, T/C [8] 78.5% | viability, T/C [9] 135% | viability, T/C [10] 121% | viability, T/C [11] 97.1% | viability, T/C [12] 44.4% | viability, T/C [13] 34.8% | viability, T/C [14] 21.6% | viability, T/C [15] 31.2% | viability, T/C [16] 33.4% | viability, T/C [17] 28.9% | viability, T/C [18] 15.4%
> 10000 nM: IC50 (second compound 0.0316 µM)

CC(CO)NC(=O)c1cc(-c2ccc(Cl)cc2)nn(-c2cnn(C)c2)c1=O (centres undefined) + CNC(=O)c1ccc(Nc2nc(OC3CCCC3)c3c(-c4ccc5nc(C)oc5c4)c[nH]c3n2)c(OC)c1
3300 nM: IC50 (second compound 0.1 µM)
9170 nM: IC50 (second compound 0.0316 µM)
inactive: viability, T/C [1] 102% | viability, T/C [2] 120% | viability, T/C [3] 117% | viability, T/C [4] 106% | viability, T/C [5] 85.1% | viability, T/C [6] 47.1% | viability, T/C [7] 64.1% | viability, T/C [8] 75.6% | viability, T/C [9] 55.4% | viability, T/C [10] 58.4% | viability, T/C [11] 53.1% | viability, T/C [12] 35.9% | viability, T/C [13] 23.6% | viability, T/C [14] 25.4% | viability, T/C [15] 24.7% | viability, T/C [16] 22.7% | viability, T/C [17] 24.4% | viability, T/C [18] 20.5% | viability, T/C [19] 26.8% | viability, T/C [20] 20.7% | viability, T/C [21] 21% | viability, T/C [22] 22% | viability, T/C [23] 20.5% | viability, T/C [24] 17.8% | viability, T/C [25] 21% | viability, T/C [26] 21.2% | viability, T/C [27] 21.7% | viability, T/C [28] 23.9% | viability, T/C [29] 22.3% | viability, T/C [30] 19.6% | viability, T/C [31] 22.5% | viability, T/C [32] 21.3% | viability, T/C [33] 20.4% | viability, T/C [34] 19.9% | viability, T/C [35] 18.1% | viability, T/C [36] 19.1%
< 31.6 nM: IC50 (second compound 0.316 µM) | IC50 (second compound 1 µM) | IC50 (second compound 3.16 µM) | IC50 (second compound 10 µM)
